According to paper PMC10254649, “Design, Synthesis, and Biological Evaluation of Potent and Selective Inhibitors of Ataxia Telangiectasia Mutated and Rad3-Related (ATR) Kinase for the Efficient Treatment of Cancer” (Molecules, 2023):
Values joined by “and” are separate entries in the source; they are usually repeats but may differ in a detail not shown here. Equal entries are not always repeated. Where two headings read alike, the source gives them in different places.

How the values were obtained:
[1] = test system: LoVo cells; assay: Wound healing migration assay; assay type: cell-based, human; conditions: 48 h
Procedure: LoVo cells in the logarithmic phase were collected and seeded in 6-well plates and cultured overnight. A straight line was drawn across the cell with a sterile pipette tip. A culture medium containing different concentrations of ZH-12 or 0.1% DMSO (10% FBS) was added. Scratch widths were recorded under an inverted microscope (Olympus, Waltham, MA, USA) at 0 h and 48 h.

[2] = test system: LoVo cells; assay: Colony formation assay; assay type: cell-based, human; conditions: 14 days
From the text: LoVo cells at a concentration of 800 cells/well were exposed to various concentrations of ZH-12 for 14 days. After 14 days of treatment, the colonies were fixed with 4% paraformaldehyde, stained with 0.1% crystal violet, and imaged using an upright biological microscope (Olympus BX53, Tokyo, Japan). The experiments were repeated at least three times and plotted via GraphPad 8.0.

[3] = test system: p-ATR(Thr1989) and p-CHK1(Ser345); assay: Western blot of ATR/CHK1 signaling in HU-treated LoVo cells; assay type: cell-based, human; conditions: LoVo cells treated with HU (hydroxyurea)
Procedure: (§1) LoVo cells with a density of 1 × 10^6 were inoculated in a small cell culture dish at a single density for 24 h and then treated with the specified concentration of 5% dimethyl sulfoxide or compound at different times. The cells were washed with cold PBS and lysed with RIPA buffer (Beyotime, Shanghai, China) containing protease inhibitors (Beyotime, Shanghai, China) and phosphatase inhibitors (Beyotime, Shanghai, China). After lysis of the total cell solution on ice for 60 min, the lysate was centrifuged (12,000 rpm, 4 °C, 20 min); The total protein concentrations obtained were determined using the BCA kit (Beyotime, Shanghai, China). A proper 6 × loading buffer was added before use, and the samples were denatured by boiling. Then, 30–100 μg of protein was loaded onto a 4–12% SDS-PAGE gel and then transferred to the PVDF membrane (Millipore). The membrane was occluded for 1 h, incubated overnight with primary antibody at 4 °C, followed by washing 3 times with Tris-buffered saline and Tween 20 (TBST) for 10 min. After incubation with a second antibody with horseradish peroxidase for 60 min at room temperature, the membrane was washed 3 times for 10 min with TBST. Finally, blotting was performed with an enhanced chemiluminescence assay kit (KeyGEN Biotech, Nanjing, China). The software ImageJ was used to quantify the percentage degradation of proteins. […]

[4] = test system: HCT116 cells; assay: CCK-8 cell proliferation assay, HCT116; assay type: cell-based; conditions: Homo sapiens, HCT-116; CCK-8, 72 h, ATM-normal cell line, three independent experiments; read-out: IC50 ± SD, HCT116
Procedure: (§2) A549, HCT116, NCI-H23, and LoVo cells were purchased from the Cell Resources Center of Shanghai Academy of Life Sciences, Shanghai, China. A549 cells were cultured in McCoy’s5A medium supplemented with 10% FBS (KeyGEN Biotech, Nanjing, China) and 1% penicillin/streptomycin (Gibco, 15070-063). HCT116 cells were cultured in IMDM medium supplemented with 10% FBS (KeyGEN Biotech, Nanjing, China) and 1% penicillin/streptomycin (Gibco, 15070-063). NCI-H23 cells were cultured in RPMI 1640 medium supplemented with 10% FBS (KeyGEN Biotech, Nanjing, China) and 1% penicillin/streptomycin (Gibco, 15070-063). LoVo cells were cultured in F12K medium supplemented with 10% FBS (KeyGEN Biotech, Nanjing, China) and 1% penicillin/streptomycin (Gibco, 15070-063). All cells were cultured in an incubator at 37 °C under a 5% CO2 atmosphere.
(§3) For the assay, 3000/well cells were planted into 96-well plates for 24 h and then treated with the indicated doses of drugs or controls for 72 h. Following the manufacturer’s instructions, cell proliferation/survival was measured using the CCK-8 (KeyGEN Biotech, Nanjing, China) assay and plotted via GraphPad 8.0.

[5] = test system: LoVo cells; assay: CCK-8 cell proliferation assay, LoVo; assay type: cell-based; conditions: Homo sapiens, CCK-8, 72 h, ATM-deficient cell line, three independent experiments, read-out: IC50 ± SD, LoVo
Procedure: as §2, §3

[6] = test system: LoVo xenografts; assay: LoVo tumor xenograft mouse model, antitumor efficacy and tolerability; assay type: in vivo; conditions: for tumor growth inhibition (TGI): days 1-18, single agent
Procedure: Balb/c nude mice (18–22 g, female, 4 weeks old) were purchased from Hangzhou Medical College (Hangzhou, China). All mice were inoculated subcutaneously in the right flank with 5 × 10^6 LoVo cells to initiate tumor growth. When the mean tumor volume reached approximately 100 mm^3, all mice were randomly divided into 8 groups (n = 5 per group) based on body weight and volume. […] Cisplatin was administered twice a week at the indicated doses. Tumor size and animal weight were measured every 3 days. Tumor volume was calculated as tumor volume (cm^3) = (length × width^2)/2. Tumor inhibition rate (%) = (1 − mean tumor weight in the treatment group/mean tumor weight in the control group) × 100%. The results were obtained from 5 test mice (mean ± SD) and calculated using GraphPad 8.0 software.

[7] = test system: A549 cells; assay: CCK-8 cell proliferation assay, A549; assay type: cell-based; conditions: Homo sapiens, CCK-8, 72 h, ATM-normal cell line, three independent experiments, read-out: IC50 ± SD, A549
Procedure: as §2, §3

[8] = test system: LoVo cells; assay: Annexin V-FITC/PI apoptosis assay by flow cytometry; assay type: cell-based, human; conditions: 1 μM
Procedure: The percentage of apoptotic cells was determined by the Annexin V-FITC/PI double staining kit (KeyGEN Biotech, Nanjing, China). According to the manufacturer’s instructions, LoVo cells were stained with Annexin V-FITC and PI. The signal of the FITC and PI was recorded by BD FACSCelesta Flow Cytometer (BD FACSCelesta, Becton, Dickinson and Company) and the FlowJo software.

[9] = test system: NCI-H23 cells; assay: CCK-8 cell proliferation assay, NCI-H23; assay type: cell-based; conditions: Homo sapiens, CCK-8, 72 h, ATM-deficient cell line, three independent experiments, read-out: IC50 ± SD, NCI-H23
Procedure: as §2, §3

[10] = test system: LoVo cells; assay: Comet assay for DNA damage; assay type: cell-based, human; conditions: 72 h
Procedure: The comet assay was performed following the protocol of the manufacturer of the Comet Assay Kit (KeyGEN Biotech, Nanjing, China). […] After 3 days of treatment, the cells (1 × 10^4/mL) were collected, mixed with low-melting agarose at a ratio of 1:10 (v/v), layered on slides, lysed in lysis buffer at 4 °C for 2 h, and then lysed in alkaline lysis solution at room temperature for 30 min. Following electrophoresis, the cells were stained with PI and observed with an […] biomicroscope (Olympus BX53, Tokyo, Japan). Three images were randomly captured per slide.

[11] = test system: 207 kinases; assay: Kinase panel selectivity screen at 1 μM; assay type: biochemical, human; conditions: single concentration of 1 μM, duplicate
[12] = test system: p-ATR(Thr1989) and p-CHK1(Ser345); assay: Western blot of ATR/CHK1 signaling in LoVo xenograft tumors; assay type: in vivo, Balb/c nude mice; conditions: LoVo xenograft tumors, 50, 25 and 12.5 mg/kg
Procedure: as §1, with “The membrane was occluded for 1 h, incubated overnight with primary antibody at 4 °C, followed by washing 3 times with Tris-buffered saline and Tween 20 (TBST) for 10 min. After incubation with a second antibody with horseradish peroxidase for 60 min at room temperature, the membrane was washed 3 times for 10 min with TBST. Finally, blotting was performed with an enhanced chemiluminescence assay kit (KeyGEN Biotech, Nanjing, China).” left out
Balb/c nude mice (18–22 g, female, 4 weeks old) were purchased from Hangzhou Medical College (Hangzhou, China). […] Tumor size and animal weight were measured every 3 days. Tumor volume was calculated as tumor volume (cm^3) = (length × width^2)/2. […] The results were obtained from 5 test mice (mean ± SD) and calculated using GraphPad 8.0 software.

[13] = target: ATR (Homo sapiens, UniProt Q13535); assay: In vitro inhibitory activity against the ATR enzyme; assay type: biochemical
ATR, sequence (Q13535 whole entry): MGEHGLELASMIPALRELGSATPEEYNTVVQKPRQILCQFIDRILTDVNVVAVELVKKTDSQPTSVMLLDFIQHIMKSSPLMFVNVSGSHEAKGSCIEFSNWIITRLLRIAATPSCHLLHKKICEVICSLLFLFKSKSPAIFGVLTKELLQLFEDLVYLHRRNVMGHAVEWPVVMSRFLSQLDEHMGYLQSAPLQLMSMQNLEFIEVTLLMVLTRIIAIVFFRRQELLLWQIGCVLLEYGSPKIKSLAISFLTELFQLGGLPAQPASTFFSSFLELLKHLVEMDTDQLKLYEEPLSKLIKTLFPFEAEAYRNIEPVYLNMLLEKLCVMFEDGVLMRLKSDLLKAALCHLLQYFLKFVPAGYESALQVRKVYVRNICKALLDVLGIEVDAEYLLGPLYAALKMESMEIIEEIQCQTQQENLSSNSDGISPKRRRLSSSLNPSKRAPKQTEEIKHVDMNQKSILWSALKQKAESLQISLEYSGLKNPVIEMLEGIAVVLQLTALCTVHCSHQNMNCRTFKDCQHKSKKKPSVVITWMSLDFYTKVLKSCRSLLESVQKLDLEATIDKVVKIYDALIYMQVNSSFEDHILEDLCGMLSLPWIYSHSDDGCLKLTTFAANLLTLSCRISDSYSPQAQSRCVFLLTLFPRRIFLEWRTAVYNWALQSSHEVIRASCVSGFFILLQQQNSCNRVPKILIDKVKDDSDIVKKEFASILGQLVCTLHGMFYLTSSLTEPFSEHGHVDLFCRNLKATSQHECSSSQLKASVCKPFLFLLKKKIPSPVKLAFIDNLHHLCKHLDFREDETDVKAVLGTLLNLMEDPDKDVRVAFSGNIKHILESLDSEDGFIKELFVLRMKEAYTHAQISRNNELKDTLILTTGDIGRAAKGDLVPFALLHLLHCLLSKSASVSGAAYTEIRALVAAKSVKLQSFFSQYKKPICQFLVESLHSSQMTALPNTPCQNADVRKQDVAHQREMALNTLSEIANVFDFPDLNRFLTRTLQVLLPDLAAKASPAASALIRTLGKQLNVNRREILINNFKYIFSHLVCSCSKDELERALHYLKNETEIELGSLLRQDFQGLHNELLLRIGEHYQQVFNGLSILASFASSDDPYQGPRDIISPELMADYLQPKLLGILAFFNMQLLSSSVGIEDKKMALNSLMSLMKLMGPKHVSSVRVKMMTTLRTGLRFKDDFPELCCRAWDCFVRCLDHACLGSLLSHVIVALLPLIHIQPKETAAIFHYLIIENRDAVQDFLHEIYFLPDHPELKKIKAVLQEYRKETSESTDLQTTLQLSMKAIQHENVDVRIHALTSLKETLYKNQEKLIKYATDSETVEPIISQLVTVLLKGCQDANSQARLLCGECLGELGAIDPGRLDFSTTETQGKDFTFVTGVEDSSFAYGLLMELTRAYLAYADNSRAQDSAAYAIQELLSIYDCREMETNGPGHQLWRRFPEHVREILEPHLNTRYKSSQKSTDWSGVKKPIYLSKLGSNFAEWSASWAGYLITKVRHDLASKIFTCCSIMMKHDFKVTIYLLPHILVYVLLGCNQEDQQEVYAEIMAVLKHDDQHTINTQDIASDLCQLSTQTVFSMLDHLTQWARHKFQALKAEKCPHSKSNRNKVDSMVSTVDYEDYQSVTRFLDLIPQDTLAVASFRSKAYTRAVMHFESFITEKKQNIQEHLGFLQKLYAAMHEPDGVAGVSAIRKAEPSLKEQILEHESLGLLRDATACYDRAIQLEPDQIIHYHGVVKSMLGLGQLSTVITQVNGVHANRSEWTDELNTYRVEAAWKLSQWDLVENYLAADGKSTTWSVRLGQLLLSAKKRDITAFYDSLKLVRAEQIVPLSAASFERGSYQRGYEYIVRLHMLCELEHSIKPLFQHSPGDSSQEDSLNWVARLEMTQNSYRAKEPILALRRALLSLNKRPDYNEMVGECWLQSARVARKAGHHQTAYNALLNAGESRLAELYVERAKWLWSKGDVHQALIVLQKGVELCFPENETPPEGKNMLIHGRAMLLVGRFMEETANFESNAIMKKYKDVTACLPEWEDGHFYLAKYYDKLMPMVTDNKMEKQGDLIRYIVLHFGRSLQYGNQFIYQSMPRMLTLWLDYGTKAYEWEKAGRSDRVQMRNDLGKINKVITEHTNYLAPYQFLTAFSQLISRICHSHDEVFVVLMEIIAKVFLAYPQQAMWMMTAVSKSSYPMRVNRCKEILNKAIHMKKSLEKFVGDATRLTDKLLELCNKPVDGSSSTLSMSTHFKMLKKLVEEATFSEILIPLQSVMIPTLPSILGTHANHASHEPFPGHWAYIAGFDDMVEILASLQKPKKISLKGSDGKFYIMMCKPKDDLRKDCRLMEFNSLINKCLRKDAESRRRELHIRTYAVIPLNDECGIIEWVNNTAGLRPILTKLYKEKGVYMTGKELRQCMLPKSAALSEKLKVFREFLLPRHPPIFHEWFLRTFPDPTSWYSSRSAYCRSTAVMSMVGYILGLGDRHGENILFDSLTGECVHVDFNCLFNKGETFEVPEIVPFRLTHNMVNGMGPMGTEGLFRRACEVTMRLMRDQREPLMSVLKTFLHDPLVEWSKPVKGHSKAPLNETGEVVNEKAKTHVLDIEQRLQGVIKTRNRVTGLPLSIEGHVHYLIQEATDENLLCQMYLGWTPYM
ATR, sequence (Q8WXE1 whole entry partner): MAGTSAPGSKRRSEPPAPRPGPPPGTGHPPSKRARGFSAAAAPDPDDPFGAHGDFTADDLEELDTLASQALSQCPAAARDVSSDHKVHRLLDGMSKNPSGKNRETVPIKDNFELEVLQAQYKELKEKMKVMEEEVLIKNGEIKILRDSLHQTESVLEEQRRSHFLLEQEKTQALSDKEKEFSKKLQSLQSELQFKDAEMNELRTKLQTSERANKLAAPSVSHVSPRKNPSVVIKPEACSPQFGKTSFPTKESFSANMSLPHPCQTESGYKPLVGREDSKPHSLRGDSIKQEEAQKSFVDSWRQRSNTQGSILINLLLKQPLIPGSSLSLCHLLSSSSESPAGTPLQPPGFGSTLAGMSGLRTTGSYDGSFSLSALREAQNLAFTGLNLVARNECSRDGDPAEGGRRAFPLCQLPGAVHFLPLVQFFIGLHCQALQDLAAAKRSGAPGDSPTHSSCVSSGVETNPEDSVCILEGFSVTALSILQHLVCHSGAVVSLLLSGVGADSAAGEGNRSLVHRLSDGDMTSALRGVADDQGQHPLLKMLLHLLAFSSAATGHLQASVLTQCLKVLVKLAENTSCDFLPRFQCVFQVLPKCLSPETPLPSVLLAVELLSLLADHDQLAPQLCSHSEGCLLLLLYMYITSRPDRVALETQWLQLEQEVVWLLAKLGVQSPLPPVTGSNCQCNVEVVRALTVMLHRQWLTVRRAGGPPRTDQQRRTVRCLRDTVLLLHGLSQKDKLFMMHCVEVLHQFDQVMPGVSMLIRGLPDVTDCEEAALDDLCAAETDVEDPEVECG

C[C@@H]1COCCN1c1nc(-c2cccc3[nH]ccc23)nc2c1CCN(C(=O)CC#N)C2 [ZH-12, (R)-3-(2-(1H-indol-4-yl)-4-(3-methylmorpholino)-5,8-dihydropyrido[3,4-d]pyrimidin-7(6H)-yl)-3-oxopropanenitrile]
cell migration, wound healing [1]: inhibited LoVo cell migration in a dose-dependent manner | colony formation (cell proliferation) [2]: inhibited cell proliferation dose-dependently | phosphorylation of ATR and CHK1, Western blot [3]: inhibited the phosphorylation of ATR and its downstream kinase CHK1 in a dose-dependent manner | IC50 [4]: 1610 ± 80 nM | IC50 [5]: 290 ± 10 nM | tumor growth inhibition (TGI) ([6]; 12.5 mg/kg, intraperitoneally, twice daily): 27.0% | tumor growth inhibition (TGI) ([6]; 25 mg/kg twice daily, AZD6738 orally, ZH-12 intraperitoneally): 39.5% | tumor growth inhibition (TGI) ([6]; 50 mg/kg, intraperitoneally, twice daily): 53.7% and 53.8% | body weight loss or toxicity ([6]; ZH-12 12.5, 25 and 50 mg/kg BID for 18 days, single agent): No significant body weight loss or toxicity was observed | IC50 [7]: 4740 ± 270 nM | apoptosis effect (percentage of apoptotic cells) [8]: 33.8% | IC50 [9]: 770 ± 130 nM | DNA damage, comet assay [10]: induced significant amounts of DNA damage dose-dependently | tail intensity, comet assay ([10]; 0.5 µM): comparable tail intensity to AZD6738 | inhibitory activities against 207 kinases [11]: weak or no inhibitory activities against 207 kinases | ATR phosphorylation (p-ATR Thr1989) and CHK1 phosphorylation (p-CHK1 Ser345) in tumors [12]: significantly inhibited ATR phosphorylation | IC50 ([13]; mean ± SD of two independent experiments, read-out: ATR IC50 ± SD): 6.81 ± 0.04 nM | IC50 ([13]; read-out: ATR IC50): 6.8 nM
